According to patent US11117900B2 (Vertex Pharmaceuticals Incorporated, priority 2012, dated 2021):

System: HCT116 colorectal cancer cells
Assay: Cisplatin sensitization assay (96 h MTS cell viability);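 further: compound concentration needed to lower the IC50 of Cisplatin alone by a set fold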
Assay type: cell-based
Details: Cisplatin sensitization value
Procedure, shortened: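 The MTS viability read, after 1 h with reagent, followed 96 h of co-treatment at 37° C. in 5% CO2. Both compound and cisplatin were titrated 2-fold from a 10 μM top final concentration in a complete concentration matrix on HCT116 cells. Scores +++/++/+ reflect cisplatin sensitization value ranges.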

SMILES | Cisplatin Sensitization Assay
COC(=O)N1CCN(c2c(F)cncc2NC(=O)c2c(N)nn3cc(F)cnc23)CC1 [I-N-261, methyl-4-(3-(2-amino-6-fluoropyrazolo[1,5-a]pyrimidine-3-carboxamido)-5-fluoropyridin-4-yl)piperazine-1-carboxylate] | +++ (Compounds with a Cisplatin sensitization value of <0.02 μM are marked with “+++.”)
COCCN1CCC[C@H](Oc2ccncc2NC(=O)c2c(N)nn3cc(Cl)cnc23)C1 [I-O-67, (S)-2-amino-6-chloro-N-(4-((1-(2-methoxyethy)piperidin-3-yl)oxy)pyridin-3-yl)pyrazolo[1,5-a]pyrimidine-3-carboxamide] | ++ (Compounds with a Cisplatin sensitization value >0.02 μM but <0.2 μM are marked with “++.”)
CN1CCN(c2c(F)cncc2NC(=O)c2c(N)nn3cc(CC#N)cnc23)CC1 [I-N-80, 2-amino-6-(cyanomethyl)-N-(5-fluoro-4-(4-methylpiperazin-1-yl)pyridin-3-yl)pyrazolo[1,5-a]pyrimidine-3-carboxamide] | ++ (Compounds with a Cisplatin sensitization value >0.02 μM but <0.2 μM are marked with “++.”)
CN(C)CCNC(=O)C1CCN(c2c(F)cncc2NC(=O)c2c(N)nn3cc(F)cnc23)CC1 [I-G-30, 2-amino-N-(4-(4-((2-(dimethylamino)ethyl)carbamoyl)piperidin-1-yl)-5-fluoropyridin-3-yl)-6-fluoropyrazolo[1,5-a]pyrimidine-3-carboxamide] | +++ (Compounds with a Cisplatin sensitization value of <0.02 μM are marked with “+++.”)
CN1CCC(c2ccncc2NC(=O)c2c(N)nn3cc(C(C)(C)C#N)cnc23)CC1 [I-C-23, 2-amino-6-(2-cyanopropan-2-yl)-N-(4-(1-methylpiperidin-4-yl)pyridin-3-yl)pyrazolo[1,5-a]pyrimidine-3-carboxamide] | + (Compounds with a Cisplatin sensitization value >0.2 μM but <5 μM are marked with “+.”)
CCOC1CN(C(=O)C2CCN(c3ccncc3NC(=O)c3c(N)nn4cc(F)cnc34)CC2)C1 [I-G-91, 2-amino-N-(4-(4-(3-ethoxyazetidine-1-carbonyl)piperidin-1-yl)pyridin-3-yl)-6-fluoropyrazolo[1,5-a]pyrimidine-3-carboxamide] | +++ (Compounds with a Cisplatin sensitization value of <0.02 μM are marked with “+++.”)
Cc1cnccc1-c1ccncc1NC(=O)c1c(N)nn2cc(F)cnc12 [I-C-29, 2-amino-6-fluoro-N-(3′-methyl-[4,4′-bipyridin]-3-yl)pyrazolo[1,5-a]pyrimidine-3-carboxamide] | +++ (Compounds with a Cisplatin sensitization value of <0.02 μM are marked with “+++.”)
Nc1nn2cc(F)cnc2c1C(=O)Nc1cncc(F)c1C1=CCN(C2COC2)CC1 [I-C-12, 2-amino-6-fluoro-N-(5-fluoro-1′-(oxetan-3-yl)-1′,2′,3′,6′-tetrahydro-[4,4′-bipyridin]-3-yl)pyrazolo[1,5-a]pyrimidine-3-carboxamide] | +++ (Compounds with a Cisplatin sensitization value of <0.02 μM are marked with “+++.”)
Nc1nn2cc(F)cnc2c1C(=O)Nc1cnccc1-c1cccnc1F [I-C-35, 2-amino-6-fluoro-N-(2-fluoro-[3,4′-bipyridin]-3′-yl)pyrazolo[1,5-a]pyrimidine-3-carboxamide] | +++ (Compounds with a Cisplatin sensitization value of <0.02 μM are marked with “+++.”)
CN1CCC(OC2CCN(c3ccncc3NC(=O)c3c(N)nn4cc(F)cnc34)CC2)CC1 [I-N-154, 2-amino-6-fluoro-N-(4-(4-((1-methylpiperidin-4-yl)oxy)piperidin-1-yl)pyridin-3-yl)pyrazolo[1,5-a]pyrimidine-3-carboxamide] | +++ (Compounds with a Cisplatin sensitization value of <0.02 μM are marked with “+++.”)
Nc1nn2cc(F)cnc2c1C(=O)Nc1cncc(F)c1N1CCN([C@H]2CCOC2)CC1 [I-N-125, (S)-2-amino-6-fluoro-N-(5-fluoro-4-(4-(tetrahydrofuran-3-yl)piperazin-1-yl)pyridin-3-yl)pyrazolo[1,5-a]pyrimidine-3-carboxamide] | +++ (Compounds with a Cisplatin sensitization value of <0.02 μM are marked with “+++.”)
Nc1nn2cc(Cl)cnc2c1C(=O)Nc1cnccc1N1CCC(N2CCCC2)CC1 [I-N-105, 2-amino-6-chloro-N-(4-(4-(pyrrolidin-1-yl)piperidin-1-yl)pyridin-3-yl)pyrazolo[1,5-a]pyrimidine-3-carboxamide] | +++ (Compounds with a Cisplatin sensitization value of <0.02 μM are marked with “+++.”)
CN(C)[C@@H]1CCN(C(=O)C2CCN(c3c(F)cncc3NC(=O)c3c(N)nn4cc(F)cnc34)CC2)C1 [I-G-11, (R)-2-amino-N-(4-(4-(3-(dimethylamino)pyrrolidine-1-carbonyl)piperidin-1-yl)-5-fluoropyridin-3-yl)-6-fluoropyrazolo[1,5-a]pyrimidine-3-carboxamide] | +++ (Compounds with a Cisplatin sensitization value of <0.02 μM are marked with “+++.”)
CN1CCC(Oc2ccncc2NC(=O)c2c(N)nn3cc(CC#N)cnc23)CC1 [I-O-23, 2-amino-6-(cyanomethyl)-N-(4-((1-methylpiperidin-4-yl)oxy)pyridin-3-yl)pyrazolo[1,5-a]pyrimidine-3-carboxamide] | +++ (Compounds with a Cisplatin sensitization value of <0.02 μM are marked with “+++.”)
Nc1nn2cc(Cl)cnc2c1C(=O)Nc1cnccc1O[C@H]1C[C@]2(CCN2)C1 [I-O-78, N-(4-((4s,6r)-1-azaspiro[3.3]heptan-6-yloxy)pyridin-3-yl)-2-amino-6-chloropyrazolo[1,5-a]pyrimidine-3-carboxamide] | + (Compounds with a Cisplatin sensitization value >0.2 μM but <5 μM are marked with “+.”)
CNC1CN(C(=O)C2CCN(c3c(F)cncc3NC(=O)c3c(N)nn4cc(F)cnc34)CC2)C1 [I-G-34, 2-amino-6-fluoro-N-(5-fluoro-4-(4-(3-(methylamino)azetidine-1-carbonyl)piperidin-1-yl)pyridin-3-yl)pyrazolo[1,5-a]pyrimidine-3-carboxamide] | +++ (Compounds with a Cisplatin sensitization value of <0.02 μM are marked with “+++.”)
Cc1cncc(NC(=O)c2c(N)nn3cc(F)cnc23)c1N1CCC(C(=O)N2CCN(C)CC2)CC1 [I-G-55, 2-amino-6-fluoro-N-(5-methyl-4-(4-(4-methylpiperazine-1-carbonyl)piperidin-1-yl)pyridin-3-yl)pyrazolo[1,5-a]pyrimidine-3-carboxamide] | +++ (Compounds with a Cisplatin sensitization value of <0.02 μM are marked with “+++.”)
Cc1nccnc1-c1ccncc1NC(=O)c1c(N)nn2cc(F)cnc12 [I-C-62, 2-amino-6-fluoro-N-(4-(3-methylpyrazin-2-yl)pyridin-3-yl)pyrazolo[1,5-a]pyrimidine-3-carboxamide] | ++ (Compounds with a Cisplatin sensitization value >0.02 μM but <0.2 μM are marked with “++.”)
CN1CCC(C(=O)N2CC=C(c3c(F)cncc3NC(=O)c3c(N)nn4cc(F)cnc34)CC2)CC1 [I-C-38, 2-amino-6-fluoro-N-(5-fluoro-1′-(1-methylpiperidine-4-carbonyl)-1′,2′,3′,6′-tetrahydro-[4,4′-bipyridin]-3-yl)pyrazolo[1,5-a]pyrimidine-3-carboxamide] | ++ (Compounds with a Cisplatin sensitization value >0.02 μM but <0.2 μM are marked with “++.”)
Nc1nn2cc(Cl)cnc2c1C(=O)Nc1cnccc1N1CCn2ccnc2C1 [I-N-44, 2-amino-6-chloro-N-(4-(5,6-dihydroimidazo[1,2-a]pyrazin-7(8H)-yl)pyridin-3-yl)pyrazolo[1,5-a]pyrimidine-3-carboxamide] | ++ (Compounds with a Cisplatin sensitization value >0.02 μM but <0.2 μM are marked with “++.”)
Nc1nn2cc(Cl)cnc2c1C(=O)Nc1cnccc1O[C@H]1CCOC1 [I-O-58, (S)-2-amino-6-chloro-N-(4-((tetrahydrofuran-3-yl)oxy)pyridin-3-yl)pyrazolo[1,5-a]pyrimidine-3-carboxamide] | +++ (Compounds with a Cisplatin sensitization value of <0.02 μM are marked with “+++.”)
CN1CCN(c2c(F)cncc2NC(=O)c2c(N)nn3cc(C(C)(C)C#N)cnc23)CC1 [I-N-138, 2-amino-6-(2-cyanopropan-2-yl)-N-(5-fluoro-4-(4-methylpiperazin-1-yl)pyridin-3-yl)pyrazolo[1,5-a]pyrimidine-3-carboxamide] | ++ (Compounds with a Cisplatin sensitization value >0.02 μM but <0.2 μM are marked with “++.”)
Nc1nn2cc(F)cnc2c1C(=O)Nc1cnccc1O[C@H]1Cc2nccn2C1 [I-O-16, (S)-2-amino-N-(4-((6,7-dihydro-5H-pyrrolo[1,2-a]imidazol-6-yl)oxy)pyridin-3-yl)-6-fluoropyrazolo[1,5-a]pyrimidine-3-carboxamide] | +++ (Compounds with a Cisplatin sensitization value of <0.02 μM are marked with “+++.”)
Nc1nn2cc(F)cnc2c1C(=O)Nc1cncc(F)c1N1CCC(CN2CCCC2=O)CC1 [I-N-213, 2-amino-6-fluoro-N-(5-fluoro-4-(4-((2-oxopyrrolidin-1-yl)methyl)piperidin-1-yl)pyridin-3-yl)pyrazolo[1,5-a]pyrimidine-3-carboxamide] | +++ (Compounds with a Cisplatin sensitization value of <0.02 μM are marked with “+++.”)
Nc1nn2cc(F)cnc2c1C(=O)Nc1cncc2c1CCNC2 [I-C-7, 2-amino-6-fluoro-N-(5,6,7,8-tetrahydro-2,7-naphthyridin-4-yl)pyrazolo[1,5-a]pyrimidine-3-carboxamide] | ++ (Compounds with a Cisplatin sensitization value >0.02 μM but <0.2 μM are marked with “++.”)
N#CCc1cnc2c(C(=O)Nc3cnccc3OC3CCCCC3)c(N)nn2c1 [I-O-39, 2-amino-6-(cyanomethyl)-N-(4-(cyclohexyloxy)pyridin-3-yl)pyrazolo[1,5-a]pyrimidine-3-carboxamide] | +++ (Compounds with a Cisplatin sensitization value of <0.02 μM are marked with “+++.”)
